Earlier results in patent US11571373B2, “Skin care preparations for babies” (priority 2015, dated 2023).
Blank lines part the entries; values can stand above or below the molecule they belong to.

Key:
[1] = species and route not given
[2] = in vivo

Molecule: [O-2].[Zn+2] [Zinc oxide (CI 77947), Zinc oxide]
solubility in water: 0.00016 g/100 ml water

Molecule: C12-C13 Pareth-4
The actual or estimated LD50 value [1]: 2,000 mg/kg body weight

Molecule: Disodium Laureth Sulfosuccinate
The actual or estimated LD50 value [1]: 5,000 mg/kg body weight

Molecule: Sodium Cocoamphoacetate
The actual or estimated LD50 value [1]: 14,859 mg/kg body weight
Oral LD50 value (rat) (rat): 14,859 mg/kg

average absorption [2]: 40-60%
share transported via the lymphatic system into the bloodstream [2]: About 90%
extent of oral absorption ([2]; po): 20-80%
Molecule: Tocopherol
